According to PubChem BioAssay AID206 (DTP/NCI, 2004):
Where “and” joins values, the source holds several entries; their conditions need not be identical. Identical values can stand only once. Inconclusive results are not listed.

Test system: nude mice, HT29 intrarenal xenograft, tumor weight T/C
Assay: NCI In Vivo Anticancer Drug Screen. Data for tumor model HT29;CX-1 Human Adenocarcinoma (MER+) (intrarenal inoculation) in NU/NU Swiss (nude) mice
Conditions: endpoint: mean tumor weight change, higher = larger tumour
Procedure, shortened: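 T/C = treated-group value ÷ vehicle-group value, using tumor size or survival.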

[1] = dose: 25.0 mg/kg/injection, schedule: Q01DX010 (sc), vehicle: saline with Tween-80
[2] = dose: 50.0 mg/kg/injection, schedule: Q01DX010 (sc), vehicle: saline with Tween-80
[3] = dose: 100.0 mg/kg/injection, schedule: Q01DX010 (sc), vehicle: saline with Tween-80
[4] = dose: 200.0 mg/kg/injection, schedule: Q01DX010 (sc), vehicle: saline with Tween-80
[5] = dose: 12.5 mg/kg/injection, schedule: Q04DX004 (sc), vehicle: suspension in saline
[6] = dose: 25.0 mg/kg/injection, schedule: Q04DX004 (sc), vehicle: suspension in saline
[7] = dose: 50.0 mg/kg/injection, schedule: Q04DX004 (sc), vehicle: suspension in saline
[8] = dose: 18.75 mg/kg/injection, schedule: Q04DX004 (sc), vehicle: Klucel (hydroxypropylcellulose) (HPC)
[9] = dose: 37.5 mg/kg/injection, schedule: Q04DX004 (sc), vehicle: Klucel (hydroxypropylcellulose) (HPC)
[10] = dose: 75.0 mg/kg/injection, schedule: Q04DX004 (sc), vehicle: Klucel (hydroxypropylcellulose) (HPC)
[11] = dose: 100.0 mg/kg/injection, schedule: Q01DX010 (sc), vehicle: saline
[12] = dose: 37.5 mg/kg/injection, schedule: Q04DX004 (sc), vehicle: saline with Tween-80
[13] = dose: 150.0 mg/kg/injection, schedule: Q04DX004 (sc), vehicle: saline with Tween-80
[14] = dose: 300.0 mg/kg/injection, schedule: Q04DX004 (sc), vehicle: saline with Tween-80

`O=c1cc(CCl)[nH]nc1CCl` was tested, and the T/C [1] was 90 % of control, the T/C [2] was 156 % of control and the T/C [3] was 90 % of control. For the same molecule, the T/C [4] was 27 % of control.
`Cc1c2cc[n+](CCN3CCCCC3)cc2c(C)c2c1[nH]c1ccc(O)cc12` was tested, and the T/C [5] was 100 % of control, the T/C [6] was 108 % of control and the T/C [7] was 98 % of control.
In the case of `COc1cccc2c1C(=O)c1c(O)c3c(c(O)c1C2=O)C[C@@](O)(/C(C)=N/NC(=O)c1cccc([N+](=O)[O-])c1)C[C@@H]3OC1CC(N)C(O)C(C)O1` (some centres not stated), the T/C (dose: 8.0 mg/kg/injection, schedule: Q01DX010 (sc), vehicle: water) was 16 % of control, the T/C (dose: 10.0 mg/kg/injection, schedule: Q04DX004 (sc), vehicle: water) was 48 % of control and the T/C (dose: 16.0 mg/kg/injection, schedule: Q01DX010 (sc), vehicle: water) was 61 % of control. The T/C (dose: 20.0 mg/kg/injection, schedule: Q04DX004 (sc), vehicle: water) was 70 % of control, the T/C (dose: 40.0 mg/kg/injection, schedule: Q04DX004 (sc), vehicle: water) was 47 % of control and the T/C (dose: 80.0 mg/kg/injection, schedule: Q04DX004 (sc), vehicle: water) was 106 % of control.
For `O=NN(CCCl)C(=O)NC1[C@H](O)CCC[C@@H]1O` (some centres not stated), the T/C (dose: 10.0 mg/kg/injection, schedule: Q04DX004 (sc), vehicle: saline) was 90 % of control.
`Cc1[nH]c(=O)[nH]c(=O)c1N(CCF)CCCl` was tested, and the T/C (dose: 10.0 mg/kg/injection, schedule: Q01DX010 (sc), vehicle: Klucel (hydroxypropylcellulose) (HPC)) was 117 % of control, the T/C (dose: 20.0 mg/kg/injection, schedule: Q01DX010 (sc), vehicle: Klucel (hydroxypropylcellulose) (HPC)) was 95 % of control and the T/C (dose: 40.0 mg/kg/injection, schedule: Q01DX010 (sc), vehicle: Klucel (hydroxypropylcellulose) (HPC)) was 48 % of control.
With `COC1C(O)CC(OC2CC(OC3CC(O[C@@H]4C(=O)c5c(cc6cc(OC7CC(OC8CC(O)C(O)C(C)O8)C(O)C(C)O7)c(C)c(O)c6c5O)C[C@H]4[C@H](OC)C(=O)[C@@H](O)[C@@H](C)O)OC(C)C3O)OC(C)C2O)OC1C` (some centres not stated) the T/C (dose: 0.75 mg/kg/injection, schedule: Q01DX010 (sc), vehicle: saline) was 27 % of control and 50 % of control and the T/C (dose: 1.5 mg/kg/injection, schedule: Q01DX010 (sc), vehicle: saline) was 29 % of control and 41 % of control.
In the case of `CC1(CO)C(O)CCC2(C)C1CCC1CC3CC12CCC3(O)CO` (configuration not stated), the T/C [2] was 50 % of control and 65 % of control, the T/C [3] was 69 % of control and the T/C [4] was 65 % of control.
For `COc1cc2cc[n+](C)c(Cc3ccccc3)c2cc1OC`, the T/C [8] was 73 % of control, the T/C [9] was 108 % of control and the T/C [10] was 54 % of control.
In the case of `OCC12COCN1COC2`, the T/C (dose: 150.0 mg/kg/injection, schedule: Q04DX004 (sc), vehicle: saline) was 88 % of control, the T/C (dose: 300.0 mg/kg/injection, schedule: Q04DX004 (sc), vehicle: saline) was 76 % of control and the T/C (dose: 600.0 mg/kg/injection, schedule: Q04DX004 (sc), vehicle: saline) was 94 % of control. The T/C (dose: 1200.0 mg/kg/injection, schedule: Q04DX004 (sc), vehicle: saline) was 90 % of control.
For `CC(=O)[C@]1(O)Cc2c(O)c3c(c(O)c2[C@@H](OC2CC(N)C(O)C(C)O2)C1)C(=O)c1c(O)cccc1C3=O` (some centres not stated), the T/C (dose: 0.63 mg/kg/injection, schedule: Q04DX004 (sc), vehicle: saline) was 50 % of control and the T/C (dose: 1.25 mg/kg/injection, schedule: Q04DX004 (sc), vehicle: saline) was 68 % of control.
For `COc1cc2cc3c4cc(OC)c(OC)cc4cc[n+]3c(C)c2cc1OC` (tested in a mixture with another compound), the T/C (dose: 50.0 mg/kg/injection, schedule: Q01DX010 (sc), vehicle: saline) was 76 % of control and the T/C [11] was 68 % of control.
With `Cc1cc(SCC(=O)c2ccc(Br)cc2)cc(C)[o+]1` the T/C [11] was 41 % of control and the T/C (dose: 200.0 mg/kg/injection, schedule: Q01DX010 (sc), vehicle: saline) was 76 % of control.
For `CC1=CC2c3cccc4[nH]cc(c34)CC2N(C)C1` (configuration not stated), the T/C [5] was 85 % of control, the T/C [6] was 61 % of control and the T/C [7] was 90 % of control.
For `CCN(CC)Cc1cc2[nH]c3c4ccc(Cl)cc4ncc3c2cc1OC`, the T/C [12] was 187 % of control, the T/C [13] was 161 % of control and the T/C [14] was 94 % of control.
With `CCCCCCCC(=O)[O][Hg][CH2]C1COC([CH2][Hg][O]C(=O)CCCCCCC)CO1` (configuration not stated) the T/C [12] was 110 % of control, the T/C (dose: 75.0 mg/kg/injection, schedule: Q04DX004 (sc), vehicle: saline with Tween-80) was 120 % of control and the T/C [13] was 47 % of control. For the same molecule, the T/C [14] was 51 % of control.
With `COc1cccc2c1C(=O)c1c(O)c3c(c(O)c1C2=O)C[C@@](O)(/C(C)=N/NC(=O)c1ccccc1)C[C@@H]3OC1CC(N)C(O)C(C)O1` (some centres not stated) the T/C (dose: 18.75 mg/kg/injection, schedule: Q04DX004 (sc), vehicle: water) was 117 % of control and the T/C (dose: 37.5 mg/kg/injection, schedule: Q04DX004 (sc), vehicle: water) was 123 % of control.
`CNc1nc2c(N)ncnc2n1C1OC(CO)C(O)C1O` (configuration not stated) was tested, and the T/C (dose: 25.0 mg/kg/injection, schedule: Q04DX004 (sc), vehicle: saline) was 87 % of control.
For `CC1(C)OCC(CO)(Nc2nc(N3CC3)nc(N3CC3)n2)CO1`, the T/C (dose: 2.0 mg/kg/injection, schedule: Q04DX004 (sc), vehicle: saline) was 76 % of control.
For `ClCCCCCCCCCCc1ccccc1`, the T/C (dose: 100.0 mg/kg/injection, schedule: Q01DX010 (sc), vehicle: Klucel (hydroxypropylcellulose) (HPC)) was 23 % of control, the T/C (dose: 200.0 mg/kg/injection, schedule: Q01DX010 (sc), vehicle: Klucel (hydroxypropylcellulose) (HPC)) was 36 % of control and the T/C (dose: 400.0 mg/kg/injection, schedule: Q01DX010 (sc), vehicle: Klucel (hydroxypropylcellulose) (HPC)) was 57 % of control.
With `S=C=NCCc1ccccc1` the T/C [3] was 57 % of control (2×) and 61 % of control.
With `CC(=O)OCC1OC(OC(C)=O)C(NC(=O)N(CCCl)N=O)C(OC(C)=O)C1OC(C)=O` (configuration not stated) the T/C (dose: 3.0 mg/kg/injection, schedule: Q04DX004 (sc), vehicle: Klucel (hydroxypropylcellulose) (HPC)) was 30 % of control, the T/C (dose: 6.0 mg/kg/injection, schedule: Q04DX004 (sc), vehicle: Klucel (hydroxypropylcellulose) (HPC)) was 40 % of control and the T/C (dose: 12.0 mg/kg/injection, schedule: Q04DX004 (sc), vehicle: Klucel (hydroxypropylcellulose) (HPC)) was 60 % of control. For the same molecule, the T/C (dose: 24.0 mg/kg/injection, schedule: Q04DX004 (sc), vehicle: Klucel (hydroxypropylcellulose) (HPC)) was 96 % of control.
With `CC1=C(/C=C/C(C)=C/C=C/C(C)=C/C(=O)O)C(C)(C)CCC1` the T/C (dose: 12.5 mg/kg/injection, schedule: Q01DX010 (sc), vehicle: saline with Tween-80) was 153 % of control, the T/C [1] was 176 % of control and the T/C [2] was 123 % of control.
For `O=c1n[n+]([O-])ccn1C1OC(CO)C(O)C1O` (configuration not stated), the T/C (dose: 250.0 mg/kg/injection, schedule: Q04DX004 (sc), vehicle: suspension in saline) was 31 % of control, the T/C (dose: 500.0 mg/kg/injection, schedule: Q04DX004 (sc), vehicle: suspension in saline) was 25 % of control and the T/C (dose: 1000.0 mg/kg/injection, schedule: Q04DX004 (sc), vehicle: suspension in saline) was 27 % of control.
In the case of `COc1ccc(C(N)=O)cc1N=NN(C)C`, the T/C [8] was 100 % of control, the T/C [9] was 31 % of control and 55 % of control and the T/C [10] was 45 % of control and 52 % of control and 70 % of control.
For `C/C=C(\C)c1cc(=O)c2c(C)cc3c(c2o1)C(=O)c1c(O)c(C2CC(C)(N(C)C)C(OC(C)=O)C(C)O2)cc(C2CC(N(C)C)C(O)C(C)O2)c1C3=O` (configuration not stated), the T/C (dose: 2.5 mg/kg/injection, schedule: Q04DX004 (sc), vehicle: saline) was 102 % of control, the T/C (dose: 5.0 mg/kg/injection, schedule: Q04DX004 (sc), vehicle: saline) was 93 % of control and the T/C (dose: 20.0 mg/kg/injection, schedule: Q04DX004 (sc), vehicle: saline) was 37 % of control and 39 % of control.
With `CCC1=C2C(=O)c3ccccc3C2=C(C)S(=O)(=O)O1` the T/C [13] was 70 % of control, the T/C [14] was 50 % of control and the T/C (dose: 1200.0 mg/kg/injection, schedule: Q04DX004 (sc), vehicle: saline with Tween-80) was 89 % of control.
In the case of `O=C(O)Cc1cccc2c(=O)cc(-c3ccccc3)oc12`, the T/C (dose: 112.0 mg/kg/injection, schedule: Q04DX003 (ip), vehicle: sodium bicarbonate) was 42 % of control, the T/C (dose: 150.0 mg/kg/injection, schedule: Q04DX003 (ip), vehicle: sodium bicarbonate) was 90 % of control and the T/C (dose: 200.0 mg/kg/injection, schedule: Q01DX001 (ip), vehicle: sodium bicarbonate) was 105 % of control. For the same molecule, the T/C (dose: 200.0 mg/kg/injection, schedule: Q04DX003 (ip), vehicle: sodium bicarbonate) was 46 % of control and the T/C (dose: 267.0 mg/kg/injection, schedule: Q01DX001 (ip), vehicle: sodium bicarbonate) was 52 % of control.
